Data set [1] can be described thus: Inhibition of c-terminal GFP-tagged human ABCG2 expressed in MDCK2 cells assessed as enhancement of Hoechst 33342-induced cytotoxicity incubated for 72 hrs by MTT assay. A general note: Formazan colour is commonly taken as a measure of viable cells.
Data set [2] in a line: Inhibition of c-terminal GFP-tagged human ABCG2 expressed in MDCK2 cells assessed as enhancement of SN-38-induced cytotoxicity incubated for 72 hrs by MTT assay.
In data set [3] the target is T1, Broad substrate specificity ATP-binding cassette transporter ABCG2 (Homo sapiens, UniProt Q9UNQ0).
T1 sequence (Q9UNQ0 whole entry): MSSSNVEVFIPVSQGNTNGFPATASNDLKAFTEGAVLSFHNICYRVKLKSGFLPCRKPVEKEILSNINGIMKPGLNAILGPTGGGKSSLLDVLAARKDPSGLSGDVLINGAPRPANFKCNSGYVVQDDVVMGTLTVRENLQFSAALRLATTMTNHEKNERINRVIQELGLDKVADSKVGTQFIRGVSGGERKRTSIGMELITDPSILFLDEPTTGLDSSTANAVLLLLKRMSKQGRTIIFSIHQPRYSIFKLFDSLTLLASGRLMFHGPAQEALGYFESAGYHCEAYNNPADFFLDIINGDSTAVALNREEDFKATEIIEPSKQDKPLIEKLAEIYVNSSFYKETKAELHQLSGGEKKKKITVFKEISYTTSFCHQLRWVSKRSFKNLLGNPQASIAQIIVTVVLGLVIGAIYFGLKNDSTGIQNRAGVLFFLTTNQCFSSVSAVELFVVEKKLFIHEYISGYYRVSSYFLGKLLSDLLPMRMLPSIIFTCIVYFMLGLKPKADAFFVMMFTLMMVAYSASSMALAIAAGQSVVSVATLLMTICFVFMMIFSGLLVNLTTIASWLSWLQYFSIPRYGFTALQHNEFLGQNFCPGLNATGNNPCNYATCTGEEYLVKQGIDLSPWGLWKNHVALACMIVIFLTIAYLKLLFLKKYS
The experiment in a line: Inhibition of c-terminal GFP-tagged human ABCG2 expressed in MDCK2 cells assessed as enhancement of Hoechst 33342-induced cytotoxicity incubated for 72 hrs by MTT assay.

Data set [4] has as its target T1, Broad substrate specificity ATP-binding cassette transporter ABCG2. The experiment in a line: Inhibition of c-terminal GFP-tagged human ABCG2 expressed in MDCK2 cells assessed as enhancement of SN-38-induced cytotoxicity incubated for 72 hrs by MTT assay.

Broadly, the EC50 is the concentration giving half of the maximal effect. `N#Cc1ccc(Nc2nc(-c3ccccc3)nc3ccccc23)cc1`: the concentration for a half-maximal effect (EC50) came out at 53 nM in data set [1] and 41 nM in data set [2].
In the case of `O=[N+]([O-])c1cc(Nc2nc(-c3ccccc3)nc3ccccc23)ccc1O`, the EC50 in data set [3] turned out to be 130 nM; in data set [4] it was 120 nM.
